Measurements: patent US10112941B2, “Tricyclic compounds as anticancer agents” (BRISTOL-MYERS SQUIBB COMPANY, priority 2013, dated 2018)

Target: BRD4 (Homo sapiens, UniProt O60885)
Assay: Time Resolved Fluorescence Resonance Energy Transfer (TR-FRET) binding assay, BRD4
Conditions: one of the FRET assays described; read-out: FRET BRD4 IC50

Row | Compound | IC50 [nM]
1 | [2H]C([2H])([2H])c1nnn(C)c1-c1cnc2c3c(OC)cc(C(C)(C)O)cc3n([C@H](c3ccccc3)C3CCOCC3)c2c1 [Example 273, 2-{9-Methoxy-3-[4-(^2H3)methyl-1-methyl-1H-1,2,3-triazol-5-yl]-5-[(S)-oxan-4-yl(phenyl)methyl]-5H-pyrido[3,2-b]indol-7-yl}propan-2-ol] | < 5
2 | Cc1sc(=O)n(C)c1-c1cnc2c3ccc(C(C)(C)O)cc3n(C(c3ccccc3)C3CCOCC3)c2c1 (single isomer, unassigned) [Example 170, 4-[7-(2-Hydroxypropan-2-yl)-5-[oxan-4-yl(phenyl)methyl]-5H-pyrido[3,2-b]indol-3-yl]-3,5-dimethyl-2,3-dihydro-1,3-thiazol-2-one] | < 1500
3 | [2H]C([2H])([2H])c1nnn(C)c1-c1cnc2c3cc(F)c(C(C)(O)C4CC4)cc3n([C@H](c3ccccc3)C3CCOCC3)c2c1 (stereo partly drawn) [Example 446, 1-Cyclopropyl-1-{8-fluoro-3-[4-(^2H3)methyl-1-methyl-1H-1,2,3-triazol-5-yl]-5-[(S)-oxan-4-yl(phenyl)methyl]-5H-pyrido[3,2-b]indol-7-yl}ethan-1-ol] | < 5
4 | Cc1cc(C(C2CCOCC2)n2c3cc(C(C)(C)O)ccc3c3ncc(-c4c(C)nnn4C)cc32)no1 (single isomer, unassigned) [Example 287, 2-[3-(Dimethyl-1H-1,2,3-triazol-5-yl)-5-[(5-methyl-1,2-oxazol-3-yl)(oxan-4-yl)methyl]-5H-pyrido[3,2-b]indol-7-yl]propan-2-ol] | < 25
5 | Cc1nocc1-c1cnc2c3ccc(C(C)(C)O)cc3n(C(c3ccc(F)cc3)C3CCOCC3)c2c1 (single isomer, unassigned) [Example 42, 2-{5-[(4-Fluorophenyl)(oxan-4-yl)methyl]-3-(3-methyl-1,2-oxazol-4-yl)-5H-pyrido[3,2-b]indol-7-yl}propan-2-ol] | < 25
6 | Cn1nnc(Cl)c1-c1cnc2c3cc(Cl)c(C(C)(C)O)cc3n([C@H](c3ccccc3)C3CCOCC3)c2c1 [Example 386, 2-[8-Chloro-3-(4-chloro-1-methyl-1H-1,2,3-triazol-5-yl)-5-[(S)-oxan-4-yl(phenyl)methyl]-5H-pyrido[3,2-b]indol-7-yl]propan-2-ol] | < 5
7 | [2H]C([2H])([2H])c1nnn(C)c1-c1cnc2c3c(F)cc(S(C)(=O)=O)cc3n(C(c3ncccc3F)C3CCC(F)(F)CC3)c2c1 (centres unmarked) [Example 212, 2-[(4,4-Difluorocyclohexyl)({9-fluoro-7-methanesulfonyl-3-[4-(^2H3)methyl-1-methyl-1H-1,2,3-triazol-5-yl]-5H-pyrido[3,2-b]indol-5-yl})methyl]-3-fluoropyridine] | < 5
8 | Cc1cc(C(C2CCOCC2)n2c3cc(-c4c(C)nnn4C)cnc3c3ccc(C(C)(C)O)c(F)c32)no1 (single isomer, unassigned) [Example 290] | < 5
9 | Cc1nnn(C)c1-c1cnc2c3c(F)cc(C(C)(C)O)cc3n(C(c3ccc(F)cc3F)C3CCOCC3)c2c1 (single isomer, unassigned) [Example 110, 2-{5-[(2,4-Difluorophenyl)(oxan-4-yl)methyl]-3-(dimethyl-1H-1,2,3-triazol-5-yl)-9-fluoro-5H-pyrido[3,2-b]indol-7-yl}propan-2-ol] | < 5
10 | [2H]C([2H])([2H])c1nnn(C)c1-c1cnc2c3c(NS(=O)(=O)CC(F)(F)F)ccc(S(C)(=O)=O)c3n([C@H](c3ccccc3)C3CCOCC3)c2c1 [Example 228, 2,2,2-Trifluoro-N-{6-methanesulfonyl-3-[4-(^2H3)methyl-1-methyl-1H-1,2,3-triazol-5-yl]-5-[(S)-oxan-4-yl(phenyl)methyl]-5H-pyrido[3,2-b]indol-9-yl}ethane-1-sulfonamide] | < 5
11 | Cc1nnn(C)c1-c1cnc2c3ccc(C(C)(C)O)cc3n(C(c3ncccc3Cl)C3CCOCC3)c2c1 (single isomer, unassigned) [Example 303] | < 5
12 | [2H]C([2H])([2H])c1nnn(C)c1-c1cnc2c3cc(F)c(C(C)(C)O)cc3n(C(c3cc(OC)ccn3)C3CCOCC3)c2c1 (single isomer, unassigned) [Example 325] | < 5
13 | Cc1noc(C)c1-c1cnc2c3ccc(C(C)(C)O)cc3n([C@H](c3ccccn3)C3CCOCC3)c2c1 [Example 21] | < 5
14 | [2H]C([2H])([2H])c1nnn(C)c1-c1cnc2c3c(S(C)(=O)=O)cc(F)c(F)c3n(C(c3ccccc3)C3CCC(F)(F)CC3)c2c1 (single isomer, unassigned) [Example 164, 5-{5-[(4,4-Difluorocyclohexyl)(phenyl)methyl]-6,7-difluoro-9-methanesulfonyl-5H-pyrido[3,2-b]indol-3-yl}-4-(^2H3)methyl-1-methyl-1H-1,2,3-triazole] | < 5
15 | Cc1noc(C)c1-c1cnc2c3ccc(C(F)F)cc3n(Cc3ccccc3)c2c1 [Example 50, 4-[5-Benzyl-7-(difluoromethyl)-5H-pyrido[3,2-b]indol-3-yl]-3,5-dimethyl-1,2-oxazole] | < 1500
16 | [2H]C([2H])([2H])c1nnn(C)c1-c1cnc2c3c(N)ccc(S(C)(=O)=O)c3n([C@H](c3ccccc3)C3CCOCC3)c2c1 [Example 227, 6-Methanesulfonyl-3-[4-(^2H3)methyl-1-methyl-1H-1,2,3-triazol-5-yl]-5-[(S)-oxan-4-yl(phenyl)methyl]-5H-pyrido[3,2-b]indol-9-amine] | < 5

Row | Compound | IC50 [nM]
17 | Cc1nnn(C)c1-c1cnc2c3cc(C(=O)N4CC(C)(O)C4)ccc3n([C@H](c3ccccc3)C3CCOCC3)c2c1 [Example 427, 1-[3-(Dimethyl-1H-1,2,3-triazol-5-yl)-5-[(S)-oxan-4-yl(phenyl)methyl]-5H-pyrido[3,2-b]indole-8-carbonyl]-3-methylazetidin-3-ol] | < 5
18 | COc1ccc(C(C2CCOCC2)n2c3cc(C(C)(C)O)ccc3c3ncc(-c4c(C)nnn4C)cc32)c(F)c1 (single isomer, unassigned) [Example 119, 2-[3-(Dimethyl-1H-1,2,3-triazol-5-yl)-5-[(2-fluoro-4-methoxyphenyl)(oxan-4-yl)methyl]-5H-pyrido[3,2-b]indol-7-yl]propan-2-ol] | < 5
19 | Cc1nnn(C)c1-c1cnc2c3ccc(C(C)(C)NS(C)(=O)=O)cc3n([C@H](c3ccccc3)C3CCOCC3)c2c1 [Example 411, N-{2-[3-(Dimethyl-1H-1,2,3-triazol-5-yl)-5-[(S)-oxan-4-yl(phenyl)methyl]-5H-pyrido[3,2-b]indol-7-yl]propan-2-yl}methanesulfonamide] | < 5
20 | [2H]C([2H])([2H])c1nnn(C)c1-c1cnc2c3ccc(C(C)(C)O)c(F)c3n(C(c3ncccc3F)C3CCC(F)(F)CC3)c2c1 (single isomer, unassigned) [Example 456] | < 5
21 | Cc1oncc1-c1cnc2c3ccc(C(C)(C)O)cc3n(C(c3ccc(F)cc3)C3CCOCC3)c2c1 (single isomer, unassigned) [Example 40, 2-{5-[(4-Fluorophenyl)(oxan-4-yl)methyl]-3-(5-methyl-1,2-oxazol-4-yl)-5H-pyrido[3,2-b]indol-7-yl}propan-2-ol] | < 25
22 | Cc1nnn(C)c1-c1cnc2c3ccc(C(C)(C)O)cc3n(C(c3cc(F)ccc3F)C3CCOCC3)c2c1 (single isomer, unassigned) [Example 132, 2-{5-[(2,5-Difluorophenyl)(oxan-4-yl)methyl]-3-(dimethyl-1H-1,2,3-triazol-5-yl)-5H-pyrido[3,2-b]indol-7-yl}propan-2-ol] | < 5
23 | CC(=O)c1ccc2c3ncc(-c4c(C)nnn4C)cc3n([C@H](c3ccccc3)C3CCOCC3)c2c1 [Example 421, 1-[3-(Dimethyl-1H-1,2,3-triazol-5-yl)-5-[(S)-oxan-4-yl(phenyl)methyl]-5H-pyrido[3,2-b]indol-7-yl]ethan-1-one] | < 5
24 | Cn1nccc1-c1cnc2c3ccc(S(C)(=O)=O)cc3n([C@H](c3ccccc3)C3CCOCC3)c2c1 [Example 418, 5-{7-Methanesulfonyl-5-[(S)-oxan-4-yl(phenyl)methyl]-5H-pyrido[3,2-b]indol-3-yl}-1-methyl-1H-pyrazole] | < 25
25 | Cc1nnn(C)c1-c1cnc2c3ccc(C4(O)COC4)cc3n([C@H](c3ccc(F)cc3)C3CCOCC3)c2c1 [Example 243, 3-[3-(Dimethyl-1H-1,2,3-triazol-5-yl)-5-[(S)-(4-fluorophenyl)(oxan-4-yl)methyl]-5H-pyrido[3,2-b]indol-7-yl]oxetan-3-ol] | < 5
26 | Cc1nnn(C)c1-c1cnc2c3c(F)cc(C(C)(C)O)cc3n([C@H](c3ccccc3)C3CCOCC3)c2c1 [Example 369, 2-[3-(Dimethyl-1H-1,2,3-triazol-5-yl)-9-fluoro-5-[(S)-oxan-4-yl(phenyl)methyl]-5H-pyrido[3,2-b]indol-7-yl]propan-2-ol] | < 5
27 | Cc1nnn(C)c1-c1cnc2c3c(S(C)(=O)=O)cccc3n([C@H](c3ccccc3F)C3CCOCC3)c2c1 [Example 269] | < 5
28 | Cc1nnn(C)c1-c1cnc2c3ccc(C(C)(C)O)cc3n(C(c3cccc(F)c3F)C3CCOCC3)c2c1 (single isomer, unassigned) [Example 94, 2-{5-[(2,3-Difluorophenyl)(oxan-4-yl)methyl]-3-(dimethyl-1H-1,2,3-triazol-5-yl)-5H-pyrido[3,2-b]indol-7-yl}propan-2-ol] | < 5
29 | COc1ccc(C(C2CCOCC2)n2c3cc(C(C)(C)O)ccc3c3ncc(-c4c(C)nnn4C)cc32)c(F)c1F (single isomer, unassigned) [Example 121, 2-{5-[(2,3-Difluoro-4-methoxyphenyl)(oxan-4-yl)methyl]-3-(dimethyl-1H-1,2,3-triazol-5-yl)-5H-pyrido[3,2-b]indol-7-yl}propan-2-ol] | < 25
30 | Cc1nnn(C)c1-c1cnc2c3c(NS(=O)(=O)C4CC4)ccc(S(C)(=O)=O)c3n([C@H](c3ccccc3)C3CCOCC3)c2c1 [Example 218] | < 5
31 | [2H]C([2H])([2H])c1nnn(C)c1-c1cnc2c3cc(F)c(C(C)(O)C4CC4)cc3n([C@H](c3ccccc3)C3CCOCC3)c2c1 (stereo partly drawn) [Example 445, 1-Cyclopropyl-1-{8-fluoro-3-[4-(^2H3)methyl-1-methyl-1H-1,2,3-triazol-5-yl]-5-[(S)-oxan-4-yl(phenyl)methyl]-5H-pyrido[3,2-b]indol-7-yl}ethan-1-ol] | < 5
32 | Cc1nnn(C)c1-c1cnc2c3ccc(CS(C)(=O)=O)cc3n([C@H](c3ncccc3F)C3CCOCC3)c2c1 [Example 332] | < 5
